Test results reported in ChEMBL document CHEMBL1201862, “PubChem BioAssay data set” (2004).
Activity calls are given as the source filed them.

Tests used:
[1] = molecular target: Voltage-dependent T-type calcium channel subunit alpha-1H (Homo sapiens, UniProt O95180); type: functional;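 note: channel activity triggered by adding a high calcium stimulation buffer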
[2] = molecular target: Beta-galactosidase (Escherichia coli, UniProt Q8VNN2); experiment: PubChem AID 485352; type: functional
[3] = molecular target: T1, Type-1 angiotensin II receptor (Homo sapiens, UniProt P30556); experiment: antagonism of angiotensin II type 1 receptor – cell-based, uHTS hits, selectivity assay for APJ receptor antagonist project, dose response (AID 463214); type: functional;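 note: antagonist potency against angiotensin II stimulated AT1 response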
T1 sequence (P30556 whole entry): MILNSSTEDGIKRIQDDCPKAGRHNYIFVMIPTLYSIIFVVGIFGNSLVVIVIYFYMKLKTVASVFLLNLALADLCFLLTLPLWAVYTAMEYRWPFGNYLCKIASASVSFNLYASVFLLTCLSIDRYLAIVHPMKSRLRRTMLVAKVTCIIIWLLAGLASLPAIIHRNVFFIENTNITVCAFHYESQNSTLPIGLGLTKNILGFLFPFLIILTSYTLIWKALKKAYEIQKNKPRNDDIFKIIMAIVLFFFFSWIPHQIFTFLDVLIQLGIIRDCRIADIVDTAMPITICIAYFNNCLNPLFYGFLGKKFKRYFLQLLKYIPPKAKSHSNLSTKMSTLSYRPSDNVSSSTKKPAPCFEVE

[4] = molecular target: T2, Aminopeptidase N (Plasmodium falciparum FcB1/Columbia, UniProt O96935); experiment: malaria alanyl aminopeptidase activity blockers – biochemical, fluorogenic H-Leu-NHMec substrate, 1536-well (AID 1445); design: species or system Plasmodium falciparum 3D7, 3D7
T2 sequence (O96935 whole entry): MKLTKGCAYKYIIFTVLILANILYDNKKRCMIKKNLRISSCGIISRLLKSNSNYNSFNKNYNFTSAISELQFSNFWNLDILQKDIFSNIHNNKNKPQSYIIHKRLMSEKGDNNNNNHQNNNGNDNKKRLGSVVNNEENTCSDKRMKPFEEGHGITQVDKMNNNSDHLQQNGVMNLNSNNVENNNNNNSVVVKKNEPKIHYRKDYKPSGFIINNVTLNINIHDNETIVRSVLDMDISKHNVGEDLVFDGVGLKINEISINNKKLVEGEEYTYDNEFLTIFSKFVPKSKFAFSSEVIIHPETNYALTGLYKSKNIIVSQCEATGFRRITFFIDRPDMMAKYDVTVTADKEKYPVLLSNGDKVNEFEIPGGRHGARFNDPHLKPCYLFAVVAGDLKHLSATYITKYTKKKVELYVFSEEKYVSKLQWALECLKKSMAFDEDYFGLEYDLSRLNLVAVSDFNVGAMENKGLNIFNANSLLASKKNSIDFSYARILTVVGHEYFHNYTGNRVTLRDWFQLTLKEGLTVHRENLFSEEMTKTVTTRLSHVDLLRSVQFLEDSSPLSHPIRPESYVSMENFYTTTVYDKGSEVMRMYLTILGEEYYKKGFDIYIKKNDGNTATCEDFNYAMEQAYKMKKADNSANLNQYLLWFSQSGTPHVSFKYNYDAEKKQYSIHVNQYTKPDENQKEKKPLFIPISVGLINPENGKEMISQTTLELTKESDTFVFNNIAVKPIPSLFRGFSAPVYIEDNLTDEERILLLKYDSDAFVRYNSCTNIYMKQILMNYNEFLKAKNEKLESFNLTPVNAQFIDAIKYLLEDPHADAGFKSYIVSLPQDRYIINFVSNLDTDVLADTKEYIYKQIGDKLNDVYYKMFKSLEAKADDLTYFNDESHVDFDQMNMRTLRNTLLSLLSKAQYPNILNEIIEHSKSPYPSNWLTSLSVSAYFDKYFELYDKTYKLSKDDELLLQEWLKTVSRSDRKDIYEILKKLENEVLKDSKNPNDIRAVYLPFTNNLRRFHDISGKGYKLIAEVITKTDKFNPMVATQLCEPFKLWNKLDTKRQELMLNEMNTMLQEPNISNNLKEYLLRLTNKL

[5] = molecular target: T3, Polyadenylate-binding protein 1 (Homo sapiens, UniProt P11940); experiment: MLLE binding blockers, Cy5 peptide tracer – biochemical, fluorescence polarization, Cy5-PAM2 peptide, secondary, miRNA deadenylation inhibitor project, dose response (AID 602260); type: functional; details: read-out: IC50_Mean
T3 sequence (P11940 whole entry, the tested form may be a part): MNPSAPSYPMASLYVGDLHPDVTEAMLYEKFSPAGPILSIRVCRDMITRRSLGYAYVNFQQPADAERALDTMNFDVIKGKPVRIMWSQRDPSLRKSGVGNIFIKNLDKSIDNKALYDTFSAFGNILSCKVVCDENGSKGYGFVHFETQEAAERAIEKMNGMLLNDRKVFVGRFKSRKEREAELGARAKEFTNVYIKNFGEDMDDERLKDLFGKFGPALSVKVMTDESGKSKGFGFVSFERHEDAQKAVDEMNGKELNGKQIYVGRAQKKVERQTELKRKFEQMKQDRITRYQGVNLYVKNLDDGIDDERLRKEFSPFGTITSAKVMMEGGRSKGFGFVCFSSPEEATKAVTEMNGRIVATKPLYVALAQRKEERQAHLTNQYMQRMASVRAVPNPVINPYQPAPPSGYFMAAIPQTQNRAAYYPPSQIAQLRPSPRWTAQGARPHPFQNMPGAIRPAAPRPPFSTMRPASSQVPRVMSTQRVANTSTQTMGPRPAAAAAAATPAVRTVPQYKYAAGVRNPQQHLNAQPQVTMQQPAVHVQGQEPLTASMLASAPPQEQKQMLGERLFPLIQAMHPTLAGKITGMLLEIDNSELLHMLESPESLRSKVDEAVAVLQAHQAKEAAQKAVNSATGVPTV

[6] = molecular target: T3, Polyadenylate-binding protein 1; experiment: MLLE domain peptide-binding blockers, IC50 – biochemical, fluorescence polarization, FITC-PAM2 peptide, dose response (AID 602259); type: functional; details: read-out: IC50_Mean
[7] = system: Escherichia coli; experiment: microbe, parasite or virus in culture
[8] = molecular target: T4, Alkaline phosphatase, tissue-nonspecific isozyme (Homo sapiens, UniProt P05186); experiment: potency against alkaline phosphatase TNAP – biochemical, luminescent, dose response, SAR follow-up (AID 1056)
T4 sequence (P05186 whole entry): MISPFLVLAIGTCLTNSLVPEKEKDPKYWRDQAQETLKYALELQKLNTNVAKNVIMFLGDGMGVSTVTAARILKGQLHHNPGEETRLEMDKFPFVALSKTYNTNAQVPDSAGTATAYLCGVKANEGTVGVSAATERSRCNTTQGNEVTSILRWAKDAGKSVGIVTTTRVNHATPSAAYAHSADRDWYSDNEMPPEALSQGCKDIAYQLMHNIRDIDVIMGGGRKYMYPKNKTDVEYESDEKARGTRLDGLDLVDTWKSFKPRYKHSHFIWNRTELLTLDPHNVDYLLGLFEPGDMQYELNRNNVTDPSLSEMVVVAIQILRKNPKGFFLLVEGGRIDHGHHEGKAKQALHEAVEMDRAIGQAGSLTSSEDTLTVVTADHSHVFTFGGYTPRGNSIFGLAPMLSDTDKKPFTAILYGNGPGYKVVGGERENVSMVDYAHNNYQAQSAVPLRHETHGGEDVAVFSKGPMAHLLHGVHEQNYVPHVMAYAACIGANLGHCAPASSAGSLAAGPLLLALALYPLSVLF

[9] = HEK-293T cell viability reduction – luminescence, B-cell screen hits, cytotoxicity control for BCR NF-kB inhibitor project, dose response (AID 489021); type: functional, cell-based;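 note: HEK-293T cells carrying an NF-kB luciferase reporter; cells exposed to compound for about 14 hours before viability readout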
[10] = molecular target: Alkaline phosphatase, placental type (Homo sapiens, UniProt P05187); experiment: human placental alkaline phosphatase inhibition – biochemical, luminescence, confirmation (AID 1512); type: functional
Chain of Alkaline phosphatase, placental type (P05187 whole entry): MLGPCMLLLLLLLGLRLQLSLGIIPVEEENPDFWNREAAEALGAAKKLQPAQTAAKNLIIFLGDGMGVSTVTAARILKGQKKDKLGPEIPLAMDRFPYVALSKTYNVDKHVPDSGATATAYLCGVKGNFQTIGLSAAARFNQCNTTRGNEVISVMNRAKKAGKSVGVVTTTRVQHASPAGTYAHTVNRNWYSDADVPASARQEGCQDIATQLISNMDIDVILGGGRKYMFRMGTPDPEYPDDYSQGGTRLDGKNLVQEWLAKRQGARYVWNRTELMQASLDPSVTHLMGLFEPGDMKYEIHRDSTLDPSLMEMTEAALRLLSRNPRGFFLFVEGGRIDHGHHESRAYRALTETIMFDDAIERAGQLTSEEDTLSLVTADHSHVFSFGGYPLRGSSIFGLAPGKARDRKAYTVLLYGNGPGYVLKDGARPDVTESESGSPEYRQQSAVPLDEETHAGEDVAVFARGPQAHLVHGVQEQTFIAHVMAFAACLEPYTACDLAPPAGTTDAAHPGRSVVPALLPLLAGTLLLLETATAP

[11] = system: Vero; experiment: cells; type: functional, cell-based; details: Chlorocebus sabaeus

Chain of Voltage-dependent T-type calcium channel subunit alpha-1H (O95180 whole entry): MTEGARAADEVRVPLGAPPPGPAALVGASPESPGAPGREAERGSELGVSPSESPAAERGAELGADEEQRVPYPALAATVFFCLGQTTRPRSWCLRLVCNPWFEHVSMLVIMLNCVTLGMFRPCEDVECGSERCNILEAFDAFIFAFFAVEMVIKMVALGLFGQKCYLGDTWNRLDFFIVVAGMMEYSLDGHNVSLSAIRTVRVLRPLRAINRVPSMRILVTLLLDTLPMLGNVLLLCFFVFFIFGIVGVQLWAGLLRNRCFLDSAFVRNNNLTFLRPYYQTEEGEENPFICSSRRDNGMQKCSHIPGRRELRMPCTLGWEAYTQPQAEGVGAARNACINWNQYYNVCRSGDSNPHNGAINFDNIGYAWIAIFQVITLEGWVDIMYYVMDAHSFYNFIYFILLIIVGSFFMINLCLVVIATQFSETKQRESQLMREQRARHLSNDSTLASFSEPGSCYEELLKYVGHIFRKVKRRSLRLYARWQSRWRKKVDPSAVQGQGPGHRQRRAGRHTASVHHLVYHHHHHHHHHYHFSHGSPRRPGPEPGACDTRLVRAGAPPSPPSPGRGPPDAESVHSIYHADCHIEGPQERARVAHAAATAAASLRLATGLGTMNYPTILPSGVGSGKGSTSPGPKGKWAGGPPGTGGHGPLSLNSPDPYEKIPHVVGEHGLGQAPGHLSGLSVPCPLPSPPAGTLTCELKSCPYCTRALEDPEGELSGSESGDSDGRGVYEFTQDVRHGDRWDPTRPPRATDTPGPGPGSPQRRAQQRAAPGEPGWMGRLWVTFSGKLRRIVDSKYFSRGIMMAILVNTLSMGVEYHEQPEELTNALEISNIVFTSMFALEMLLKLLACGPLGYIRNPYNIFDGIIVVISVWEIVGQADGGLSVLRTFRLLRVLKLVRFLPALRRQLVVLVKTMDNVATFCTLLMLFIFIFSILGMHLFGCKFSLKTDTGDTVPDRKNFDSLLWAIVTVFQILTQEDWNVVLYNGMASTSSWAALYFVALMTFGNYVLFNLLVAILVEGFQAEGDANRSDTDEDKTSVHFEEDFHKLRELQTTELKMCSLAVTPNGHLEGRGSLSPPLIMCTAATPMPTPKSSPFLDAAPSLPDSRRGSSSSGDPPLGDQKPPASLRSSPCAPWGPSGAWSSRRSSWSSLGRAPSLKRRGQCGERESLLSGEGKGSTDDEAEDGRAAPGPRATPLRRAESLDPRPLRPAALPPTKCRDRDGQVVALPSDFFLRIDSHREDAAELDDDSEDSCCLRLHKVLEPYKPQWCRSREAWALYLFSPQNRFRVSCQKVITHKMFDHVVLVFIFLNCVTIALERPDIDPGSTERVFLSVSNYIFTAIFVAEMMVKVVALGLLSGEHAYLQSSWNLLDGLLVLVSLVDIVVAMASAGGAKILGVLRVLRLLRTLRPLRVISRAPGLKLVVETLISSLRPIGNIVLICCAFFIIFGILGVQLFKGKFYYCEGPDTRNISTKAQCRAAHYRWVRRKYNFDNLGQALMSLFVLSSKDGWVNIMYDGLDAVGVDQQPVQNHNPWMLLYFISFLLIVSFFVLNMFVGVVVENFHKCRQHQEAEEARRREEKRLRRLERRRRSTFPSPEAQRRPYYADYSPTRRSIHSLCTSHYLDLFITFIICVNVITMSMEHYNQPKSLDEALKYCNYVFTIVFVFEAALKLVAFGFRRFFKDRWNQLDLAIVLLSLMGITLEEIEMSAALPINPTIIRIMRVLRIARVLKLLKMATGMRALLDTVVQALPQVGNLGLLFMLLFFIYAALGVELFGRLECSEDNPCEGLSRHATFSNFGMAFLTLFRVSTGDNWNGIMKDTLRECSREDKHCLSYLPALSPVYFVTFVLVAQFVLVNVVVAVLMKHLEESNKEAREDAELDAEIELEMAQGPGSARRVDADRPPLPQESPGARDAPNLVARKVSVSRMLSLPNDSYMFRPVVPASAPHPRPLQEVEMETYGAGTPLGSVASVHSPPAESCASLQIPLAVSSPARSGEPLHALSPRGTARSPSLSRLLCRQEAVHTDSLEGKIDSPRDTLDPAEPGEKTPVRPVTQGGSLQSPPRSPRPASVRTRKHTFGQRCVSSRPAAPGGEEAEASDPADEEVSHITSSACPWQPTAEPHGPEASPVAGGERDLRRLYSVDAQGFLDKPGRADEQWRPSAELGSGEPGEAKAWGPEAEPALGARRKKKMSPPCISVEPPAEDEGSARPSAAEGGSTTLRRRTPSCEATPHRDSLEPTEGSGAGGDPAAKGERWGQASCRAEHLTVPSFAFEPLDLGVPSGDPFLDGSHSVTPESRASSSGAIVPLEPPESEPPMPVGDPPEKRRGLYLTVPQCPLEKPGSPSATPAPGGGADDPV
Chain of Beta-galactosidase (Q8VNN2 whole entry): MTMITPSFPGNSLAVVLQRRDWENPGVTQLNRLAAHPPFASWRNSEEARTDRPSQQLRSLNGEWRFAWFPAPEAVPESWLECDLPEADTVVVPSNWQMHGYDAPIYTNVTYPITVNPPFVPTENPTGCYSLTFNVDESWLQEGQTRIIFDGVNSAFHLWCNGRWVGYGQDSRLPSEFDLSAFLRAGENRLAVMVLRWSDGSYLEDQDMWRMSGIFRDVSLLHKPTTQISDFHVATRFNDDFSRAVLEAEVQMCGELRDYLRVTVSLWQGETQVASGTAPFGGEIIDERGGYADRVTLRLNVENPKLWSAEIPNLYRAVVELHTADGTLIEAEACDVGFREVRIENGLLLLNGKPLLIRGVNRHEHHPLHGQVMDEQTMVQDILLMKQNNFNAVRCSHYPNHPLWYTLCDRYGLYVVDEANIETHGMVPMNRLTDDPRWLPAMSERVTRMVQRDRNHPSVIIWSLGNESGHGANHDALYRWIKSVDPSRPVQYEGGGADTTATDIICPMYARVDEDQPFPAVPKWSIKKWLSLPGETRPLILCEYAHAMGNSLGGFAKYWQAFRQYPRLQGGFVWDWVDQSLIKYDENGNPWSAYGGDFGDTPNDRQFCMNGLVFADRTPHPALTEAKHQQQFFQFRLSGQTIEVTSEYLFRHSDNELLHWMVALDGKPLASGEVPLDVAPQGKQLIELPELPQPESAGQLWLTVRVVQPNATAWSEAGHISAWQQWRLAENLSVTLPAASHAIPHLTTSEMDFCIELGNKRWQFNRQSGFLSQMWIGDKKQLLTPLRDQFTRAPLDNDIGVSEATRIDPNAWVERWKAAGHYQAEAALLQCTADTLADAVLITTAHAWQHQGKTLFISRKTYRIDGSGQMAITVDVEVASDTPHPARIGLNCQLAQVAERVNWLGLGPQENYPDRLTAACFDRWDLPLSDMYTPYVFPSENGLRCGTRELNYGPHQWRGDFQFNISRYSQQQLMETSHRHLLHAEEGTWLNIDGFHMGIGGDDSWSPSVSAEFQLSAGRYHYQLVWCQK

For `Cc1cccc(-c2nc(C[S+]([O-])CC(=O)NCCCSC3CCCCC3)c(C)o2)c1` (stereo unspecified), the EC50 [1] was 3.94 µM (active).
For `O=C(CN1C(=O)C2C3CCC(C3)C2C1=O)OCC(=O)c1cccc([N+](=O)[O-])c1` (stereo unspecified), the EC50 [2] was > 40 µM (inactive) and the IC50 [3] was 26.3 µM (not active).
With `O=C(NC1CCN(C(=O)NCc2ccccc2)CC1)c1ccco1` the IC50 [4] was 93.2 µM (active).
With `COc1ccc(S(=O)(=O)N2CCN(c3ccc(C)cc3C)CC2)cc1OC` the EC50 [1] was 9.63 µM (active).
With `Cc1cc2cc(CNC(=O)c3ccc(Br)o3)ccc2[nH]1` the IC50 [5] was 45.1 µM (inactive), the IC50 [6] was 49.6 µM (inactive) and the EC50 [1] was 10.1 µM (active).
With `CC(C)(C)n1nnnc1C(c1cc2cc3c(cc2nc1O)OCCO3)N1CCSCC1` (stereo unspecified) the AC50 [7] was 28.6 µM (active).
In the case of `O=C(Cn1cnc2ccccc21)c1ccc(O)c(O)c1`, the IC50 [8] is reported as 14 µM (active).
For `NS(=O)(=O)c1ccc(NC(=O)CSc2nnc(-c3ccc(O)cc3)o2)cc1`, the AC50 [7] was 127 µM (active).
For `COc1cc(/C(C)=N\NC(N)=S)cc(OC)c1OC`, the IC50 [9] was > 80 µM (inactive).
For `COc1ccc(-c2nnc(SCC(=O)c3ccc(O)c(O)c3)n2-c2ccccc2)cc1`, the IC50 [10] was 7.22 µM (active) and the IC50 [8] was > 100 µM (inactive).
For `Cc1ccc2c(Cl)cc(Cl)c(O)c2n1` [CHLORQUINALDOL], the IC50 [11] was > 25 µM (active) and the AC50 [7] was 54.3 µM (active).
